Data as given in patent US9505762B2, “Purine derivatives as CB2 receptor agonists” (Hoffmann-La Roche Inc., priority 2013, dated 2016).

Target: human CB2 receptors (Homo sapiens (Human), UniProt P34972)
Assay: functional cAMP assay, CB2
Assay type: cell-based
Conditions: CHO cells expressing human CB2
Experimental: (§1) The growth medium was exchanged with Krebs Ringer Bicarbonate buffer with 1 mM IBMX and incubated at 30° C. for 30 min. Compounds were added to a final assay volume of 100 μl and incubated for 30 min at 30° C. Using the cAMP-Nano-TRF detection kit the assay (Roche Diagnostics) was stopped by the addition of 50 μl lysis reagent (Tris, NaCl, 1.5% Triton X100, 2.5% NP40, 10% NaN3) and 50 μl detection solutions (20 μM mAb Alexa700-cAMP 1:1, and 48 μM Ruthenium-2-AHA-cAMP) and shaken for 2 h at room temperature. The time-resolved energy transfer is measured by a TRF reader (Evotec Technologies GmbH), equipped with a ND:YAG laser as excitation source. The plate is measured twice with the excitation at 355 nm and at the emission with a delay of 100 ns and a gate of 100 ns, total exposure time 10 s at 730 (bandwidth 30 nm) or 645 nm (bandwidth 75 nm), respectively.
(§2) EC50 values were determined using Activity Base analysis (ID Business Solution, Limited).

Chain of human CB2 receptors (P34972 whole entry): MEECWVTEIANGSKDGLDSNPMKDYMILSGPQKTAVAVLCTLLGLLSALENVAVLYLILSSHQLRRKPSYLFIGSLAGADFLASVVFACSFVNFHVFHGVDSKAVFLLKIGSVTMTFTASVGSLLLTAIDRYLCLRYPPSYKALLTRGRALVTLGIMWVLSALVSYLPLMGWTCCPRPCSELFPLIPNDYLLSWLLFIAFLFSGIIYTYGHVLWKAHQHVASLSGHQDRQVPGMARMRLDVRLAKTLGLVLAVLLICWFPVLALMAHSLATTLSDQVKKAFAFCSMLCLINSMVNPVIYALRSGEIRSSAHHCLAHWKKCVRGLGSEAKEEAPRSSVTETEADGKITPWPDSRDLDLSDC

| Compound | EC50 [µM] |
| --- | --- |
| CC(C)(C)c1nc(N2CCC[C@@H]2C#N)c2ncn(Cc3ncccc3Cl)c2n1 [Example 163, (2R)-1-[2-tert-Butyl-9-[(3-chloropyridin-2-yl)methyl]purin-6-yl]pyrrolidine-2-carbonitrile] | 0.0069 |
| CC(C)(C)c1nc(N2CC[C@H](O)C2)c2ncn(Cc3ccccc3Cl)c2n1 [Example 97, (3S)-1-[2-tert-butyl-9-[(2-chlorophenyl)methyl]purin-6-yl]pyrrolidin-3-ol] | 0.0018 |
| Cc1nonc1Cn1cnc2c(N3CCC(C)(O)C3)nc(OCC(C)(C)C)nc21 (centres unmarked) [Example 135, 1-[2-(2,2-dimethylpropoxy)-9-[(4-methyl-1,2,5-oxadiazol-3-yl)methyl]purin-6-yl]-3-methylpyrrolidin-3-ol] | 0.0307 |
| CC(C)(C)c1nc(N2CCC(F)(F)C2)c2ncn(Cc3ccccc3C(F)(F)F)c2n1 [Example 5, 2-tert-butyl-6-(3,3-difluoropyrrolidin-1-yl)-9-[[2-(trifluoromethyl)phenyl]methyl]purine] | 0.0007 |
| CC(C)(C)c1nc(N2CCC(F)(F)C2)c2ncn(Cc3c[nH]nc3C(F)(F)F)c2n1 [Example 41, 2-tert-butyl-6-(3,3-difluoropyrrolidin-1-yl)-9-[[3-(trifluoromethyl)-1H-pyrazol-4-yl]methyl]purine] | 0.0092 |
| CC(C)(C)c1nc(N2CCC(F)(F)C2)c2ncn(CCc3ccccc3)c2n1 [Example 13, 2-tert-butyl-6-(3,3-difluoropyrrolidin-1-yl)-9-(2-phenylethyl)purine] | 0.0054 |
| CC(C)(C)c1nc(N2CCC(F)(F)C2)c2ncn(Cc3cccnc3Cl)c2n1 [Example 6, 2-tert-butyl-9-[(2-chloropyridin-3-yl)methyl]-6-(3,3-difluoropyrrolidin-1-yl)purine] | 0.0005 |
| CC(C)(C)c1nc(N2CCC(F)(F)C2)c2ncn(Cc3ccccc3Cl)c2n1 [Example 2, 2-tert-butyl-9-[(2-chlorophenyl)methyl]-6-(3,3-difluoropyrrolidin-1-yl)purine] | 0.0006 |

Target: human CB1 receptors (Homo sapiens (Human), UniProt P21554)
Assay: functional cAMP assay, CB1
Assay type: cell-based
Conditions: CHO cells expressing human CB1
Experimental: as §1, §2

Chain of human CB1 receptors (P21554 whole entry): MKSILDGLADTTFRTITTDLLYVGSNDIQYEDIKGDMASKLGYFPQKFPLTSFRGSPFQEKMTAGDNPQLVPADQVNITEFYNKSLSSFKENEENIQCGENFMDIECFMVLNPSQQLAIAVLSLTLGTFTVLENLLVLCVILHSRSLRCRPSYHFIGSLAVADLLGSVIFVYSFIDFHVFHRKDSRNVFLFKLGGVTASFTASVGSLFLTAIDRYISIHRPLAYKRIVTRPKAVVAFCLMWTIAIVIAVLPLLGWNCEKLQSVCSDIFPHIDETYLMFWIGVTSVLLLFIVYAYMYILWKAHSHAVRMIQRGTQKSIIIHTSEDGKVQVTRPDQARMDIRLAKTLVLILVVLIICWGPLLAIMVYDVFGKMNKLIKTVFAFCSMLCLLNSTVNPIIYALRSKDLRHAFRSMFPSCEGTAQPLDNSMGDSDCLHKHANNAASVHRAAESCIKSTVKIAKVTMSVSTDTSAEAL

| Compound | EC50 [µM] |
| --- | --- |
| CC(C)(C)c1nc(N2CCC[C@@H]2C#N)c2ncn(Cc3ncccc3Cl)c2n1 [Example 163, (2R)-1-[2-tert-Butyl-9-[(3-chloropyridin-2-yl)methyl]purin-6-yl]pyrrolidine-2-carbonitrile] | > 10 |
| CC(C)(C)c1nc(N2CC[C@H](O)C2)c2ncn(Cc3ccccc3Cl)c2n1 [Example 97, (3S)-1-[2-tert-butyl-9-[(2-chlorophenyl)methyl]purin-6-yl]pyrrolidin-3-ol] | > 10 |
| Cc1nonc1Cn1cnc2c(N3CCC(C)(O)C3)nc(OCC(C)(C)C)nc21 (centres unmarked) [Example 135, 1-[2-(2,2-dimethylpropoxy)-9-[(4-methyl-1,2,5-oxadiazol-3-yl)methyl]purin-6-yl]-3-methylpyrrolidin-3-ol] | > 10 |
| Cc1nonc1Cn1cnc2c(N3CC(F)(F)C(F)(F)C3)nc(C(C)(C)C)nc21 [Example 82, 3-[[2-tert-butyl-6-(3,3,4,4-tetrafluoropyrrolidin-1-yl)purin-9-yl]methyl]-4-methyl-1,2,5-oxadiazole] | > 10 |
| CC(=O)N[C@H]1CCN(c2nc(C(C)(C)C)nc3c2ncn3Cc2nonc2C)C1 [Example 55, N—[(S)-1-[2-tert-butyl-9-[(4-methyl-1,2,5-oxadiazol-3-yl)methyl]purin-6-yl]pyrrolidin-3-yl]acetamide] | > 10 |
| CC(=O)N[C@H]1CCN(c2nc(C(C)(C)C)nc3c2ncn3Cc2ccccc2Cl)C1 [Example 48, N—{(S)-1-[2-tert-Butyl-9-(2-chloro-benzyl)-9H-purin-6-yl]-pyrrolidin-3-yl}-acetamide] | > 10 |
| CC(C)(C)c1nc(N2CCC(F)(F)C2)c2ncn(CCC(F)(F)F)c2n1 [Example 19, 2-tert-butyl-6-(3,3-difluoropyrrolidin-1-yl)-9-(3,3,3-trifluoropropyl)purine] | > 10 |
| CCCn1cnc2c(N3CCC(F)(F)C3)nc(C(C)(C)C)nc21 [Example 10, 2-tert-butyl-6-(3,3-difluoropyrrolidin-1-yl)-9-propylpurine] | > 10 |
| Cc1nonc1Cn1cnc2c(N3CCC(C)(O)C3)nc(C(C)(C)C)nc21 (centres unmarked) [Example 70, 1-[2-tert-butyl-9-[(4-methyl-1,2,5-oxadiazol-3-yl)methyl]purin-6-yl]-3-methylpyrrolidin-3-ol] | > 10 |
| CC(C)(C)c1nc(N2CCC[C@@H]2CO)c2ncn(Cc3nnnn3C3CC3)c2n1 [Example 146, [(2R)-1-[2-tert-butyl-9-[(1-cyclopropyltetrazol-5-yl)methyl]purin-6-yl]pyrrolidin-2-yl]methanol] | > 10 |
| CC(C)(C)c1nc(N2CC[C@H](O)C2)c2ncn(Cc3nnnn3C(C)(C)C)c2n1 [Example 166, (3S)-1-[2-tert-butyl-9-[(1-tert-butyltetrazol-5-yl)methyl]purin-6-yl]pyrrolidin-3-ol] | > 10 |
| CC(C)(C)c1nc(N2CCC(O)C2)c2ncn(Cc3ccc(Cl)cc3)c2n1 (centres unmarked) [Example 26, 1-[2-tert-butyl-9-[(4-chlorophenyl)methyl]purin-6-yl]pyrrolidin-3-ol] | > 10 |
| CC(C)(C)Nc1nc(N2CC[C@H](O)C2)c2ncn(Cc3c[nH]nc3C(F)(F)F)c2n1 [Example 122, (3S)-1-[2-(tert-butylamino)-9-[[3-(trifluoromethyl)-1H-pyrazol-4-yl]methyl]purin-6-yl]pyrrolidin-3-ol] | > 10 |
| CC(C)(C)c1nc(N2CC(F)(F)C(F)(F)C2)c2ncn(Cc3ccccc3Cl)c2n1 [Example 72, 2-tert-butyl-9-[(2-chlorophenyl)methyl]-6-(3,3,4,4-tetrafluoropyrrolidin-1-yl)purine] | > 10 |
| CC(C)(C)Nc1nc(N2CC3(COC3)C2)c2ncn(Cc3ccccc3C(F)(F)F)c2n1 [Example 137, N-tert-butyl-6-(2-oxa-6-azaspiro[3.3]heptan-6-yl)-9-[[2-(trifluoromethyl)phenyl]methyl]purin-2-amine] | > 10 |
| CC(C)(C)c1nc(N2CC(F)(F)C2)c2ncn(Cc3ncccc3Cl)c2n1 [Example 160, 2-tert-butyl-9-[(3-chloropyridin-2-yl)methyl]-6-(3,3-difluoroazetidin-1-yl)purine] | > 10 |
| CCCn1cnc2c(N3CCC(O)C3)nc(C(C)(C)C)nc21 (centres unmarked) [Example 36, 1-(2-tert-butyl-9-propylpurin-6-yl)pyrrolidin-3-ol] | > 10 |
| CC(C)(C)c1nc(N2CC[C@H](O)C2)c2ncn(Cc3ccc(Cl)cc3)c2n1 [Example 88, (3S)-1-[2-tert-butyl-9-[(4-chlorophenyl)methyl]purin-6-yl]pyrrolidin-3-ol] | > 10 |
| CC1(O)CCN(c2nc(C(C)(C)C)nc3c2ncn3Cc2ccc(Cl)cc2)C1 (centres unmarked) [Example 66, 1-[2-tert-butyl-9-[(4-chlorophenyl)methyl]purin-6-yl]-3-methylpyrrolidin-3-ol] | > 10 |
| COCCn1cnc2c(N3CCC(C)(O)C3)nc(C(C)(C)C)nc21 (centres unmarked) [Example 71, 1-[2-tert-butyl-9-(2-methoxyethyl)purin-6-yl]-3-methylpyrrolidin-3-ol] | > 10 |
| Cc1nonc1Cn1cnc2c(N3CCN(C)CC3)nc(C(C)(C)C)nc21 [Example 144, 3-[[2-tert-butyl-6-(4-methylpiperazin-1-yl)purin-9-yl]methyl]-4-methyl-1,2,5-oxadiazole] | > 10 |
| COCCn1cnc2c(N3CCC(F)(F)C3)nc(C(C)(C)C)nc21 [Example 15, 2-tert-butyl-6-(3,3-difluoropyrrolidin-1-yl)-9-(2-methoxyethyl)purine] | > 10 |
| Cc1ccc(Cn2cnc3c(N4CCC(F)(F)C4)nc(C(C)(C)C)nc32)cc1 [Example 3, 2-tert-butyl-6-(3,3-difluoropyrrolidin-1-yl)-9-[(4-methylphenyl)methyl]purine] | > 10 |
| Cc1nnc(Cn2cnc3c(N4CCC(F)(F)C4)nc(NC(C)(C)C)nc32)o1 [Example 109, N-tert-butyl-6-(3,3-difluoropyrrolidin-1-yl)-9-[(5-methyl-1,3,4-oxadiazol-2-yl)methyl]purin-2-amine] | > 10 |
